Measurements from patent publication EP4653437A2 (Innovo Therapeutics Inc., priority 2023, dated 2024).

What was measured:
human 15-PGDH = molecular target: T1, human 15-PGDH (Homo sapiens, UniProt P15428); assay: Evaluation of 15-PGDH inhibitory activity (fluorescence enzyme assay, NAD+/PGE2); type: biochemical; settings: human 15-PGDH enzyme, fluorescence Vmax
T1 construct: purchased R&D System 5660-DH
T1 sequence (P15428 1-266): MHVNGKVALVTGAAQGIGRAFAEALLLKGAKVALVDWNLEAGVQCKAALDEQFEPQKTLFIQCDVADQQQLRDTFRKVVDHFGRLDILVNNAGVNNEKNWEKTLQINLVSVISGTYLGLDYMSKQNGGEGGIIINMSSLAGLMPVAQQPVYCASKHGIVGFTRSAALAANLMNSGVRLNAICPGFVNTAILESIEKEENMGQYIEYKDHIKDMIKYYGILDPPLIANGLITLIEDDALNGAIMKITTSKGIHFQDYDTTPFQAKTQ
Procedure: 15-PGDH inhibition activity of Example compounds was measured as follows. 6.7 ng of human 15-PGDH (R&D System# 5660-DH) enzyme (10 µL) was added to a black 96 well plate, 60 µL of buffer (50 mM Tris-HCl, pH 7.5, 0.01% Tween 20) was added, and 10 µL of 200 µM β-Nicotinamide adenine dinucleotide sodium salt (Sigma, Cat# N0632-5G) was added. 10 µL of (10x) compound solution in DMSO was added and reacted for 10 minutes at room temperature.

A549 cells = assay: Measurement of PGE2-increasing activity in A549 cells (IL-1β stimulated, PGE2 quantified in supernatant); type: cell-based; settings: Homo sapiens, 24 h; concentration of 1 µM of each compound; IL-1β treated A549 cells; read-out: Increased PGE2 production in A549 cells
Procedure, shortened: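 PGE2 secreted into the supernatant was measured by immunoassay 24 h after treatment. Before treatment, A549 cells were cultured 24 h in 10% FBS F12K, washed, and placed in serum-free medium containing compound (DMSO 0.1% final) plus or minus IL-1β, incubated at 37 °C, 5% CO2.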

Row | SMILES | IC50 (human 15-PGDH) [nM] | fold induction at 1 µM (A549 cells)
1 | CN(C)CCNC(=O)c1cccc(-c2cccc3c(C(=O)N4CCCCC4)cnn23)c1 [Example 31, N-(2-(dimethylamino)ethyl)-3-(3-(piperidine-1-carbonyl)pyrazolo[1,5-a]pyridin-7-yl)benzamide] | ≤ 100 | < 1.5
2 | COCCNC(=O)c1cccc(-c2cccc3c(C(=O)N4CCCCC4)cnn23)c1 [Example 30, N-(2-methoxyethyl)-3-(3-(piperidine-1-carbonyl)pyrazolo[1,5-a]pyridin-7-yl)benzamide] | ≤ 100 | > 1.5
3 | O=C(NCC1CC1)c1cccc(-c2cccc3c(C(=O)N4CCCCC4)cnn23)c1 [Example 32, N-(cyclopropylmethyl)-3-(3-(piperidine-1-carbonyl)pyrazolo[1,5-a]pyridin-7-yl)benzamide] | ≤ 100 | < 1.5
4 | O=C(Nc1cccc2c(C(=O)N3CCCCC3)cnn12)c1ccc(Cl)cc1 [Example 239, 4-chloro-N-[3-(piperidine-1-carbonyl)pyrazolo[1,5-a]pyridin-7-yl]benzamide] | ≤ 100 | > 1.5
5 | O=C(c1cncc(-c2cccc3c(C(=O)N4CCCCC4)cnn23)c1)N1CC2(CC(O)C2)C1 [Example 225, (6-hydroxy-2-azaspiro[3.3]heptan-2-yl)-[5-[3-(piperidine-1-carbonyl)pyrazolo[1,5-a]pyridin-7-yl]-3-pyridyl]methanone] | ≤ 100 | > 1.5
6 | CN(C)C(=O)c1ccc(-c2cccc3c(C(=O)N4CCCCC4)cnn23)cc1 [Example 59, N,N-dimethyl-4-(3-(piperidine-1-carbonyl)pyrazolo[1,5-a]pyridin-7-yl)benzamide] | ≤ 100 | > 1.5
7 | O=C1NCCc2ccc(Nc3cccc4c(C(=O)N5CCCCC5)cnn34)cc21 [Example 211, 7-[[3-(piperidine-1-carbonyl)pyrazolo[1,5-a]pyridin-7-yl]amino]-3,4-dihydro-2H-isoquinolin-1-one] | ≤ 100 | > 1.5
8 | O=C(c1cnn2c(-c3ccc([N+](=O)[O-])cc3)cccc12)N1CCC(F)CC1 [Example 157, (4-fluoropiperidin-1-yl)(7-(4-nitrophenyl)pyrazolo[1,5-a]pyridin-3-yl)methanone] | ≤ 100 | > 1.5
9 | O=C(c1cnn2c(-c3ccc([N+](=O)[O-])nc3)cccc12)N1CCCCC1 [Example 16, (7-(6-nitropyridin-3-yl)pyrazolo[1,5-a]pyridin-3-yl)(piperidin-1-yl)methanone] | ≤ 100 | > 1.5
10 | O=C1NCc2ccc(-c3cccc4c(C(=O)N5CCCCC5)cnn34)cc21 [Example 140, 6-(3-(piperidine-1-carbonyl)pyrazolo[1,5-a]pyridin-7-yl)isoindolin-1-one] | ≤ 100 | > 1.5
11 | O=C(Nc1ccc(-c2cccc3c(C(=O)N4CCCCC4)cnn23)cc1)c1cccnc1 [Example 101, N-(4-(3-(piperidine-1-carbonyl)pyrazolo[1,5-a]pyridin-7-yl)phenyl)nicotinamide] | ≤ 100 | > 1.5
12 | O=C(c1cnn2c(-c3cc(Cl)nc(Cl)c3)cccc12)N1CCCCC1 [Example 282, (7-(2,6-dichloropyridin-4-yl)pyrazolo[1,5-a]pyridin-3-yl)(piperidin-1-yl)methanone] | ≤ 100 | < 1.5
13 | O=C(c1cnn2c(-c3cnc(F)c(Cl)c3)cccc12)N1CCCCC1 [Example 289, (7-(5-chloro-6-fluoropyridin-3-yl)pyrazolo[1,5-a]pyridin-3-yl)(piperidin-1-yl)methanone] | ≤ 100 | > 1.5
14 | N#Cc1cc(-c2cccc3c(C(=O)N4CCCCC4)cnn23)ccc1F [Example 254, 2-fluoro-5-[3-(piperidine-1-carbonyl)pyrazolo[1,5-a]pyridin-7-yl]benzonitrile] | ≤ 100 | > 1.5
